Tests used:
[1] = test system: MM.1S cells co-cultured with BMSCs; test: 3[H]-thymidine incorporation, MM.1S co-cultured with BMSCs; type: cell-based, human; conditions: 7.5, 15, 30 μM, 48 hours (FIG. 6D)
Method: To measure proliferation of MM cells, the rate of DNA synthesis was measured by ^3[H]-thymidine (Perkin-Elmer) uptake. […] Cell proliferation was measured by 3[H]-thymidine incorporation assay. Data represent mean±SD from quadruplicate cultures (FIG. 6D).

pSTAT3 (Tyr705) = test: Immunoblot of STAT3 phosphorylation in MM cells; type: cell-based, human; conditions: MM.1S, 10 and 20 μM, 10 hours, then IL-6 10 ng/mL 4 hours (FIG. 6G)
Method: MM cells were harvested and lysed using sodium dodecyl sulfate-polyacrylamide gel electrophoresis (SDS-PAGE) sample buffer containing 60 mM Tris-HCl, pH 6.8, 2% SDS, 10% glycerol, 0.005% bromophenol blue, 5 mM ethylenediaminetetraacetic acid, 5 mM NaF, 2 mM […], 1 mM phenylmethylsulfonyl fluoride (PMSF), 5 μg/mL leupeptin, and 5 μg/mL aprotinin; and then heated at 100° C. for 5 min. After the determination of protein concentration using DC protein assay (Bio-Rad, Hercules, Calif.), β-mercaptoethanol (β-ME) was added to the whole-cell lysates to a 2% final β-ME concentration. The whole-cell lysates were subjected to SDS-PAGE, transferred to nitrocellulose membranes (Bio-Rad, Hercules, Calif.) or polyvinylidene fluoride membranes (Millipore, Billerica, Mass.), and immunoblotted with anti-histone H3, -HDAC1, -HDAC2, -HDAC3, -Acetyl-histone H2A (Lysine 5) (Ac-H2AK5), -Acetyl-histone H2B (lysine 5) (Ac-H2 BK5), -Acetyl-histone H3 (lysine 9) (Ac-H3K9), -Acetyl-histone H4 (lysine 8) (Ac-H4K8), -glyceraldehyde-3-phosphate dehydrogenase (GAPDH), -poly (ADP-ribose) polymerase (PARP), -caspase-3, -caspase-8, -caspase-9, -Signal transducers and activators of transcription 3 (STAT3), -phospho-STAT3 (pSTAT3) (tyrosine 705), -pSTAT3 (serine 727), -p21, -Janus kinase 2 (JAK2), -acetylated-Lysine (Ac-K), and anti-phosphorylated-tyrosine antibodies (Abs; Cell Signaling Technology, Beverly, Mass.).
MM.1S, U266, and INA6 cells were cultured with DMSO control or LBH589 (50 and 100 nM) for 8 h.
MM.1S cells pretreated with or without 50 nM LBH589 for 8 hours were then treated with IL-6 (10 ng/mL) or BMSC culture supernatants (#1 and #2) for 15 minutes. Whole cell lysates were subjected to immunoblotting with anti-pSTAT3 (Tyr705) and STAT3 Abs.
In addition, INA-6 cells were cultured with DMSO control, LBH589 (50 nM), TSA (1 μM) or SAHA (2 μM) for 8 hours. Whole cell lysates were subjected to immunoblotting with anti-pSTAT3 (Tyr705), STAT3, and GAPDH Abs.
Whole cell lysates were subjected to immunoblotting with anti-pSTAT3 (Tyr705), -STAT3, -pERK1/2 (Thr202/204), and -ERK1/2 Abs (FIG. 6G).
See, e.g., Hideshima et al. Blood. 2006, 107:4053-4062. Since bortezomib upregulates activated STAT3 in head and neck squamous cell carcinoma (see, e.g., Li et al. Mol Cancer Ther 2009. 8:2211-2220), experiments were conducted to test whether bortezomib enhances p-STAT3 in MM cells. RPMI8226 cells were infected with Luc, HDAC1 (sh1), HDAC2 (sh1) or HDAC3 (sh1) shRNAs and then treated with or without bortezomib (5 nM) for 6 hours. Whole cell lysates were subjected to immunoblotting with anti-STAT3, -pSTAT3 (Tyr705), -pERK1/2 (Thr202/204) and -ERK1/2 Abs.

MM.1S xenograft = test: Subcutaneous MM.1S murine xenograft model; type: in vivo; conditions: SCID mice
Method: CB17 SCID mice (48-54 days old) were purchased from Charles River Laboratories (Wilmington, Mass.). All animal studies were conducted according to protocols approved by the Animal Ethics Committee of the Dana-Farber Cancer Institute. After irradiation (200cGy), mice were subcutaneously injected with 5×10^6 MM.1S cells in the right flank. […] Tumor size was measured every three days, and tumor volume was calculated with the formula: V=0.5 (a×b^2), where “a” is the long diameter of the tumor and “b” is the short diameter of the tumor. Mice were sacrificed when the tumor reached 2 cm in length or 2 cm^3 volume, or if mice appeared moribund to prevent unnecessary morbidity. Survival was evaluated from the first day of the treatment until death. […] These SCID mice were subcutaneously injected with 5×10^6 MM.1S cells. […] Tumor volume was calculated from caliper measurements twice weekly, and data represent mean±SD (FIG. 9A).

SMILES: Nc1ccccc1NC(=O)c1cnccn1 [Compound 10, N-(2-aminophenyl)pyrazine-2-carboxamide]
- MM cell proliferation in the presence of BMSCs [1]: markedly inhibited MM cell growth even in the presence of BMSCs
- p-STAT3 (pSTAT3 (Tyr705)): markedly downregulated p-STAT3
- MM tumor growth (tumor volume) (MM.1S xenograft; 15 and 50 mg/kg IP 5 days a week for 3 weeks, versus control, day 22 p<0.05 (FIG. 9A)): significantly inhibited MM tumor growth
- tumor growth, combination with bortezomib (MM.1S xenograft; Compound 10 50 mg/kg + bortezomib 0.5 mg/kg sc twice a week, p<0.05): further enhanced either single agent activity

Source: patent publication US9988343B2, “Inhibitors of histone deacetylase” (Dana-Farber Cancer Institute, Inc., priority 2013, dated 2018)
